Measured values: patent US20080009418A1, “Selective Inhibitors” (Alchemia LTD., priority 2004, published 2008)

Columns and labels:
[1] = molecular target: T1, Human neuropeptide Y (NPY-Y1) (Homo sapiens, UniProt P25929); test: Radioligand binding, human neuropeptide Y NPY-Y1 membranes, FlashPlate, [125I]-PYY; settings: compound at 10 μM, [125I]-PYY
T1 construct: purchased Perkin Elmer Biosignal
T1 sequence (P25929 1-384): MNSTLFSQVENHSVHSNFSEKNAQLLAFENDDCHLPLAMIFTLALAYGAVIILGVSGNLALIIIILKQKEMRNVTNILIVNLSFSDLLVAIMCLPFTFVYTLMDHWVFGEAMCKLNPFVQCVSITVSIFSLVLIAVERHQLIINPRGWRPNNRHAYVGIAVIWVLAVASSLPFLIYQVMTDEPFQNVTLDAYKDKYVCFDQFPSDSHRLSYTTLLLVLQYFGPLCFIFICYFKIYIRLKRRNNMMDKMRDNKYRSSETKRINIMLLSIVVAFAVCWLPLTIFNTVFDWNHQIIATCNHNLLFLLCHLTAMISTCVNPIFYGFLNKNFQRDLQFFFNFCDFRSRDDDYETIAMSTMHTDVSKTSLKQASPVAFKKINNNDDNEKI
Outline: (§1)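 Cloned human receptor membranes were coated onto FlashPlate wells and incubated with radioligand and compound (added from a 0.5 mM DMSO daughter plate) for 1 hour at room temperature in the dark. Scintillation counting gave percent inhibition, with DMSO defining total and reference ligand defining non-specific binding.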

Human opioid (ORL1) = molecular target: T2, Human opioid (ORL1) (Homo sapiens, UniProt P41146); test: Radioligand binding, human opioid ORL1 membranes, FlashPlate, [125I]-Nociceptin; settings: compound at 10 μM, [125I]-Nociceptin
T2 construct: purchased Perkin Elmer Biosignal
T2 sequence (P41146 whole entry): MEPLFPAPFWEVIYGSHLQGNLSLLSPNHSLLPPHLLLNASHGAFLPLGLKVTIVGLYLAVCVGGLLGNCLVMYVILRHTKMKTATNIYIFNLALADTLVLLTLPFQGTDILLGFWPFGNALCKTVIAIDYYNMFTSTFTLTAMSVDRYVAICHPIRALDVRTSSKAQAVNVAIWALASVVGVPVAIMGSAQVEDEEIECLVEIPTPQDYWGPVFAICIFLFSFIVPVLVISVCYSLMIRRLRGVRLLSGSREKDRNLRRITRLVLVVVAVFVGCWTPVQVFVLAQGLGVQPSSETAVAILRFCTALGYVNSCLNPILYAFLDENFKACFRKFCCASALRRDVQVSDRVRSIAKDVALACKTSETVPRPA
Outline: as §1

Human Melanocortin (MC3) = molecular target: T3, Human Melanocortin (MC3) (Homo sapiens, UniProt P41968); test: Radioligand binding, human melanocortin MC3 membranes, FlashPlate, [125I]-NDP-αMSH; settings: compound at 10 μM, [125I]-NDP-αMSH
T3 construct: purchased Perkin Elmer Biosignal
T3 sequence (P41968 whole entry): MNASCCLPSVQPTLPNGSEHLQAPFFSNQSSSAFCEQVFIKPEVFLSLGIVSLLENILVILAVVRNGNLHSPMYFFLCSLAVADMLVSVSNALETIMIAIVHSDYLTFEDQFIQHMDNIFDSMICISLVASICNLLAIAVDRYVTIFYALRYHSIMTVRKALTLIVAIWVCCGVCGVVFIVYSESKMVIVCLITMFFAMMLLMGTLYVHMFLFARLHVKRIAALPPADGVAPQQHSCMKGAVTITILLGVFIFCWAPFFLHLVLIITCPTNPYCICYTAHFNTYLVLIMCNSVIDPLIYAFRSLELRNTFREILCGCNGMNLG
Outline: as §1

Human κ-Opioid (KOP) = molecular target: T4, Human κ-Opioid (KOP) (Homo sapiens, UniProt P41145); test: Radioligand binding, human κ-opioid (KOP) membranes, filtration, [3H]-Diprenorphine; settings: compound at 10 μM, [3H]-Diprenorphine
T4 construct: purchased Perkin Elmer Biosignal
T4 sequence (P41145 whole entry): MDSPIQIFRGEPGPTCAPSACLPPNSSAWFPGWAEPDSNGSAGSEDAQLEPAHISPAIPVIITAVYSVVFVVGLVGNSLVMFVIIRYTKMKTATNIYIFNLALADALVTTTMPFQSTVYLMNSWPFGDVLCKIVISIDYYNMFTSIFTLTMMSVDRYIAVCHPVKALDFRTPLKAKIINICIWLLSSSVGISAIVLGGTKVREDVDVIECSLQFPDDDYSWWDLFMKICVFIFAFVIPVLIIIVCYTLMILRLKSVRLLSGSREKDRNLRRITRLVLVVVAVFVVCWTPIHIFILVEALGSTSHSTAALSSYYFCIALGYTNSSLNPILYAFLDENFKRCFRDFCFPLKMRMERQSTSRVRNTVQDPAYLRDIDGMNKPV
Outline: (§2)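 Filtration binding on cloned human receptor membranes (1 Unit/well), [125I]-Substance P for NK1 and [3H]-Diprenorphine for KOP, 1 h at room temperature. Filters PEI-presoaked, washed with cold 50 mM Tris-HCl pH 7.4, counted by scintillation; percent inhibition calculated, reference ligand defining non-specific binding.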

Human neurokinin (NK1) = molecular target: T5, Human neurokinin (NK1) (Homo sapiens, UniProt P25103); test: Radioligand binding, human neurokinin NK1 membranes, filtration, [125I]-Substance P; settings: compound at 10 μM, [125I]-Substance P
T5 construct: purchased Perkin Elmer Biosignal
T5 sequence (P25103 whole entry): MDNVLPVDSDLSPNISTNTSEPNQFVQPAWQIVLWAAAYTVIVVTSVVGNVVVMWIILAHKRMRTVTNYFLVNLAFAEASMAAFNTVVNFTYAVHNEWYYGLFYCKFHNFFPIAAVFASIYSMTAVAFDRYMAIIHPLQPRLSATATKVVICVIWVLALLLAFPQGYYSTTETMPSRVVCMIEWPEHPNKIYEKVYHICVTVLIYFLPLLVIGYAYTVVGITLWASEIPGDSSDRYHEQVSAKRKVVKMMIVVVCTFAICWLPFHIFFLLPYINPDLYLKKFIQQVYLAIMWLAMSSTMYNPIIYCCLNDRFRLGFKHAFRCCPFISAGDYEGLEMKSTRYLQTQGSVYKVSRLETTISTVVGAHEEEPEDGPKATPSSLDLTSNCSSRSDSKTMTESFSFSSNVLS
Outline: as §2

Human δ-opioid (DOP) = molecular target: T6, Human δ-opioid (DOP) (Homo sapiens, UniProt P41143); test: Radioligand binding, human δ-opioid (DOP) membranes, FlashPlate, [3H]-Bremazocine; settings: compound at 10 μM, [3H]-Bremazocine
T6 construct: purchased Perkin Elmer Biosignal
T6 sequence (P41143 whole entry): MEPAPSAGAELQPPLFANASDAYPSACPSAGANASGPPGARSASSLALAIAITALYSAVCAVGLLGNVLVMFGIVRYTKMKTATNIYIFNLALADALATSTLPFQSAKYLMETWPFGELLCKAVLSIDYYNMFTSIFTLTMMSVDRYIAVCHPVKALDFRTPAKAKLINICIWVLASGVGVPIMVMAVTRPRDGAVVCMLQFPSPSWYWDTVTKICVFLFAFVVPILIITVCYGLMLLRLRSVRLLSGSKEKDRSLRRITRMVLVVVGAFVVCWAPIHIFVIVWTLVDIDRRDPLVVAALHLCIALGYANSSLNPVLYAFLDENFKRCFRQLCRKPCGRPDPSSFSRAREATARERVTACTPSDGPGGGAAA
Outline: as §1

Mouse urotensin (mUR2) = molecular target: T7, Mouse urotensin (mUR2) (Mus musculus, UniProt Q8VIH9); test: Radioligand binding, mouse urotensin mUR2 membranes, FlashPlate, [125I]-Urotensin II; settings: compound at 10 μM, [125I]-Urotensin II
T7 construct: purchased Perkin Elmer Biosignal
T7 sequence (Q8VIH9 1-385): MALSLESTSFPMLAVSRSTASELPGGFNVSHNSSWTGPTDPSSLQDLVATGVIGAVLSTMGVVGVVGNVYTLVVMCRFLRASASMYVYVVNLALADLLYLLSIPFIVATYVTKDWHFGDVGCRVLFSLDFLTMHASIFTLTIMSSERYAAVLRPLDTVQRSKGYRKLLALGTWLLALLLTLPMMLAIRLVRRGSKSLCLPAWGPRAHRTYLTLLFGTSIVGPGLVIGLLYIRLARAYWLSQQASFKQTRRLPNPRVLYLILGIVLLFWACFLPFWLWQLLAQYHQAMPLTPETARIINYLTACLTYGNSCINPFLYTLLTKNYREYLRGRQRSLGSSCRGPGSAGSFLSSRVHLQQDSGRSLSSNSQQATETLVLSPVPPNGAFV
Outline: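 Cloned mouse urotensin (mUR2) receptor membranes from Perkin Elmer Biosignal were immobilized in FlashPlate microplates using a proprietary coating. Each well got 19.5 μl buffer, then 0.5 μl of DMSO, reference ligand, or compound. Adding 5 μl of [125I]-Urotensin II, diluted to 5× final concentration in binding buffer, started binding. Plates were sealed with TopSeal-A and incubated 1 hour at room temperature in the dark. Wells were counted for 30 seconds each on a TopCount after a 60-second delay, and percentage inhibition was calculated.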

Human μ-opioid (MOP) = molecular target: T8, Human μ-opioid (MOP) (Homo sapiens, UniProt P35372); test: Radioligand binding, human μ-opioid (MOP) membranes, FlashPlate, [3H]-Naloxone; settings: compound at 10 μM, [3H]-Naloxone
T8 construct: purchased Perkin Elmer Biosignal
T8 sequence (P35372 whole entry): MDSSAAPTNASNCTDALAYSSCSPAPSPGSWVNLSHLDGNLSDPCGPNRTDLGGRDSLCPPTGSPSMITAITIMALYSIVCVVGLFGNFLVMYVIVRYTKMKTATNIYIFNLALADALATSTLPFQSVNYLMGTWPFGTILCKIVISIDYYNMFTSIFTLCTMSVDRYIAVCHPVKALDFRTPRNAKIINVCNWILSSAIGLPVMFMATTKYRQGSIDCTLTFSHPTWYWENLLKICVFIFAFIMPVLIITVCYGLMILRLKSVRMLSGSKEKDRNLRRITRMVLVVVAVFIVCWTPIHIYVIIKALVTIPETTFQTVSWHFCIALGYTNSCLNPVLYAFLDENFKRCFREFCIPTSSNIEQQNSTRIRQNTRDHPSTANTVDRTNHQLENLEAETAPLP
Outline: as §1

[2] = molecular target: T9, Human melanin-concentrating hormone (MCH1) (Homo sapiens, UniProt Q99705); test: Radioligand binding, human melanin-concentrating hormone MCH1 membranes, FlashPlate, [125I]-S36057; settings: compound at 10 μM
T9 construct: purchased Perkin Elmer Biosignal
T9 sequence (Q99705 whole entry): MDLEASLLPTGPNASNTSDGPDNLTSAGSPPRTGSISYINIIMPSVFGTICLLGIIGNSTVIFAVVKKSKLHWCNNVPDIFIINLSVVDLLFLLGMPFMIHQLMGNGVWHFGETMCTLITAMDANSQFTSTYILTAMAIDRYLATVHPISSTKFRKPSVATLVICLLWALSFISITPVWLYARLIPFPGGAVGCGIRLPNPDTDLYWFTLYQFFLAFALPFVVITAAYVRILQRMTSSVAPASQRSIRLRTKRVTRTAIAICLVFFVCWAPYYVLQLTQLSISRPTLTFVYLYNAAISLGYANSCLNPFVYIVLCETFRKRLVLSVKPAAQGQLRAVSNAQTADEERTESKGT
Outline: as §1

Human melanocortin (MC5) = molecular target: T10, Human melanocortin (MC5) (Homo sapiens, UniProt P33032); test: Radioligand binding, human melanocortin MC5 membranes, FlashPlate, [125I]-NDP-αMSH; settings: compound at 10 μM, [125I]-NDP-αMSH
T10 construct: purchased Perkin Elmer Biosignal
T10 sequence (P33032 whole entry): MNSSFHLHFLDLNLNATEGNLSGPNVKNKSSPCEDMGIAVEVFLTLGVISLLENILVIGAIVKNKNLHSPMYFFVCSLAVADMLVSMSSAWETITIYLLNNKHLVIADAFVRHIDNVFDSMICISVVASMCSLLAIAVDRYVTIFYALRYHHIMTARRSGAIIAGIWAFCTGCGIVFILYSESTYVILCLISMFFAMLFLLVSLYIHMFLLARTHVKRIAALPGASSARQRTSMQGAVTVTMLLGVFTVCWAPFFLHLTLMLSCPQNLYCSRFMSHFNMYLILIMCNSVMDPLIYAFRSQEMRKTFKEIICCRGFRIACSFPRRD
Outline: as §1

Human Melanocortin (MC4) = molecular target: T11, Human Melanocortin (MC4) (Homo sapiens, UniProt P32245); test: Radioligand binding, human melanocortin MC4 membranes, FlashPlate, [125I]-NDP-αMSH; settings: compound at 10 μM, [125I]-NDP-αMSH
T11 construct: purchased Perkin Elmer Biosignal
T11 sequence (P32245 whole entry): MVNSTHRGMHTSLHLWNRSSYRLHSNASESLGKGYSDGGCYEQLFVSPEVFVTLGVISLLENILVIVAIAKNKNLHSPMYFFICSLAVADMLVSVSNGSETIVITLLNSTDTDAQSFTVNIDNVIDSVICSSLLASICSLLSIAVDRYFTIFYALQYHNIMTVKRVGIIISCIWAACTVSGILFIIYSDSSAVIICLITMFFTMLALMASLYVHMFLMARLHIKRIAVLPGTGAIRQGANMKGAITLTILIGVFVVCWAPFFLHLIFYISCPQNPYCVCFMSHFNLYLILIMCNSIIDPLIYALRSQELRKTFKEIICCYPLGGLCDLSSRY
Outline: as §1

| SMILES | A9: inhibition of radioligand binding, human neuropeptide Y (NPY-Y1) [1] | A10: inhibition of radioligand binding, human opioid (ORL1) (Human opioid (ORL1)) | A3: inhibition of radioligand binding, human melanocortin (MC3) (Human Melanocortin (MC3)) | A2: inhibition of radioligand binding, human κ-opioid (KOP) (Human κ-Opioid (KOP)) | A8: inhibition of radioligand binding, human neurokinin (NK1) (Human neurokinin (NK1)) | A1: inhibition of radioligand binding, human δ-opioid (DOP) (Human δ-opioid (DOP)) | A11: inhibition of radioligand binding, mouse urotensin (mUR2) (Mouse urotensin (mUR2)) | A7: inhibition of radioligand binding, human μ-opioid (MOP) (Human μ-opioid (MOP)) | A6: inhibition of radioligand binding, human melanin-concentrating hormone (MCH1) ([2]; [125I]-S36057) | A5: inhibition of radioligand binding, human melanocortin (MC5) (Human melanocortin (MC5)) | A4: inhibition of radioligand binding, human melanocortin (MC4) (Human Melanocortin (MC4)) | other results |
| --- | --- | --- | --- | --- | --- | --- | --- | --- | --- | --- | --- | --- |
| COC1C(O)C(COCc2ccc3ccccc3c2)OC(OCc2ccc(Cl)cc2)C1NC(=O)C1CCN(C(=N)N)CC1 (stereo not drawn) [compound 349] | − (“−” indicates less than 50% inhibition at 10 μM) | − (“−” indicates less than 50% inhibition at 10 μM) | − (“−” indicates less than 50% inhibition at 10 μM) | − (“−” indicates less than 50% inhibition at 10 μM) | + (“+” indicates greater than 50% inhibition at 10 μM) | − (“−” indicates less than 50% inhibition at 10 μM) | − (“−” indicates less than 50% inhibition at 10 μM) | − (“−” indicates less than 50% inhibition at 10 μM) | − (“−” indicates less than 50% inhibition at 10 μM) | + (“+” indicates greater than 50% inhibition at 10 μM) | − (“−” indicates less than 50% inhibition at 10 μM) | – |
| CSC1OC(COCc2ccc3ccccc3c2)C(O)C(OCc2ccccc2)C1NC(=O)CCCNC(=N)N (stereo not drawn) [compound 264] | – | – | – | – | – | – | – | – | – | – | – | A9: inhibition of radioligand binding ([1]; FlashPlate): − (“−” indicates less than 50% inhibition at 10 μM); A10: inhibition of radioligand binding (Human opioid (ORL1); FlashPlate): − (“−” indicates less than 50% inhibition at 10 μM); A3: inhibition of radioligand binding (Human Melanocortin (MC3); FlashPlate): − (“−” indicates less than 50% inhibition at 10 μM); A2: inhibition of radioligand binding (Human κ-Opioid (KOP); filtration): − (“−” indicates less than 50% inhibition at 10 μM); A8: inhibition of radioligand binding (Human neurokinin (NK1); filtration): + (“+” indicates greater than 50% inhibition at 10 μM); A1: inhibition of radioligand binding (Human δ-opioid (DOP); FlashPlate): − (“−” indicates less than 50% inhibition at 10 μM); A11: inhibition of radioligand binding (Mouse urotensin (mUR2); FlashPlate): − (“−” indicates less than 50% inhibition at 10 μM); A7: inhibition of radioligand binding (Human μ-opioid (MOP); FlashPlate): − (“−” indicates less than 50% inhibition at 10 μM); A6: inhibition of radioligand binding ([2]; [125I]-S36057, FlashPlate): − (“−” indicates less than 50% inhibition at 10 μM); A5: inhibition of radioligand binding (Human melanocortin (MC5); FlashPlate): − (“−” indicates less than 50% inhibition at 10 μM); A4: inhibition of radioligand binding (Human Melanocortin (MC4); FlashPlate): − (“−” indicates less than 50% inhibition at 10 μM) |
| CO[C@H]1[C@H](O)[C@@H](COCc2cccc(O)c2)OC(OCc2ccc(Cl)cc2)[C@@H]1NC(=O)CNC(=N)N (stereo partly drawn) [compound 155] | – | – | – | – | – | – | – | – | – | – | – | A9 radioligand binding, percentage inhibition [1]: − (“−” indicates less than 50% inhibition at 10 μM); A10 radioligand binding, percentage inhibition (Human opioid (ORL1)): − (“−” indicates less than 50% inhibition at 10 μM); A3 radioligand binding, percentage inhibition (Human Melanocortin (MC3)): − (“−” indicates less than 50% inhibition at 10 μM); A2 radioligand binding, percentage inhibition (Human κ-Opioid (KOP)): − (“−” indicates less than 50% inhibition at 10 μM); A8 radioligand binding, percentage inhibition (Human neurokinin (NK1)): − (“−” indicates less than 50% inhibition at 10 μM); A1 radioligand binding, percentage inhibition (Human δ-opioid (DOP)): − (“−” indicates less than 50% inhibition at 10 μM); A11 radioligand binding, percentage inhibition (Mouse urotensin (mUR2)): − (“−” indicates less than 50% inhibition at 10 μM); A7 radioligand binding, percentage inhibition (Human μ-opioid (MOP)): − (“−” indicates less than 50% inhibition at 10 μM); A6 radioligand binding, percentage inhibition ([2]; [125I]-S36057): − (“−” indicates less than 50% inhibition at 10 μM); A5 radioligand binding, percentage inhibition (Human melanocortin (MC5)): + (“+” indicates greater than 50% inhibition at 10 μM); A4 radioligand binding, percentage inhibition (Human Melanocortin (MC4)): − (“−” indicates less than 50% inhibition at 10 μM) |
| CSC1OC(COCc2ccc(Cl)cc2)C(O)C(OCc2cccc(N)c2)C1NC(=O)c1c[nH]c2ccccc12 (stereo not drawn) [compound 323] | − (“−” indicates less than 50% inhibition at 10 μM) | − (“−” indicates less than 50% inhibition at 10 μM) | − (“−” indicates less than 50% inhibition at 10 μM) | − (“−” indicates less than 50% inhibition at 10 μM) | + (“+” indicates greater than 50% inhibition at 10 μM) | − (“−” indicates less than 50% inhibition at 10 μM) | − (“−” indicates less than 50% inhibition at 10 μM) | − (“−” indicates less than 50% inhibition at 10 μM) | − (“−” indicates less than 50% inhibition at 10 μM) | − (“−” indicates less than 50% inhibition at 10 μM) | − (“−” indicates less than 50% inhibition at 10 μM) | – |
| CSC1OC(COCc2ccc(-c3ccccc3)cc2)C(O)C(OCc2ccc3ccccc3c2)C1NC(=O)CNC(=N)N (stereo not drawn) [compound 312] | − (“−” indicates less than 50% inhibition at 10 μM) | − (“−” indicates less than 50% inhibition at 10 μM) | + (“+” indicates greater than 50% inhibition at 10 μM) | − (“−” indicates less than 50% inhibition at 10 μM) | + (“+” indicates greater than 50% inhibition at 10 μM) | − (“−” indicates less than 50% inhibition at 10 μM) | − (“−” indicates less than 50% inhibition at 10 μM) | − (“−” indicates less than 50% inhibition at 10 μM) | − (“−” indicates less than 50% inhibition at 10 μM) | + (“+” indicates greater than 50% inhibition at 10 μM) | + (“+” indicates greater than 50% inhibition at 10 μM) | – |
| COC[C@H]1OC(OCc2ccc3ccccc3c2)[C@H](NC(=O)CCCN)[C@@H](OCc2ccc(-c3ccccc3)cc2)[C@@H]1O (stereo partly drawn) [compound 337] | − (“−” indicates less than 50% inhibition at 10 μM) | − (“−” indicates less than 50% inhibition at 10 μM) | − (“−” indicates less than 50% inhibition at 10 μM) | − (“−” indicates less than 50% inhibition at 10 μM) | + (“+” indicates greater than 50% inhibition at 10 μM) | − (“−” indicates less than 50% inhibition at 10 μM) | − (“−” indicates less than 50% inhibition at 10 μM) | + (“+” indicates greater than 50% inhibition at 10 μM) | + (“+” indicates greater than 50% inhibition at 10 μM) | + (“+” indicates greater than 50% inhibition at 10 μM) | − (“−” indicates less than 50% inhibition at 10 μM) | – |
